Key:
EPHA3 = EPHA3 (Homo sapiens, UniProt P29320)
Experimental: (§1) This was completed utilizing one of two assays depending on the kinase being examined.
(§2) A solution of IMAP binding reagent (IMAP Screening Express kit; Molecular Devices) (60 μL) was added to each well and incubated for 30 minutes.
(§3) A solution of termination buffer (QuickScout Screening assist MSA; Carna Biosciences) (60 μL) was added to each well. The entire reaction mixture was then applied to a LabChip3000 system (Caliper Life Science) and the product and substrate peptide peaks were separated and quantified.
(§4) The assay utilized was identical to that of the single point inhibitory activity determination (MSA) but run in dose response. […] A solution of termination buffer (QuickScout Screening assist MSA; Carna Biosciences) (60 μL) was added to each well. The entire reaction mixture was then applied to a LabChip3000 system (Caliper Life Science) and the product and substrate peptide peaks were separated and quantified.

CDK9/CycT1 = CDK9/CycT1 (Homo sapiens, UniProt P50750)
Experimental: as §1, §2, §3, §4

EPHA6 = EPHA6 (Homo sapiens, UniProt Q9UF33)
Experimental: as §1, §2, §3

PAK2 = PAK2 (Homo sapiens, UniProt Q13177)
Experimental: as §1, §2, §3, §4

MAP2K6_Cascade = MAP2K6_Cascade (Homo sapiens, UniProt P52564)
Experimental: as §1, §2, §3, §4

JAK3 = JAK3 (Homo sapiens, UniProt P52333)
Experimental: as §1, §2, §3, §4

EML4-ALK = EML4-ALK (Homo sapiens, UniProt Q9UM73)
Experimental: as §1, §2, §3, §4

TRKA = TRKA (Homo sapiens, UniProt P04629)
Experimental: as §1, §2, §3, §4

p38δ = p38δ (Homo sapiens, UniProt O15264)
Experimental: as §1, §2, §3, §4

BTK = BTK (Homo sapiens, UniProt Q06187)
Experimental: as §1, §2, §3, §4

PKN1 = PKN1 (Homo sapiens, UniProt Q16512)
Experimental: as §1, §2, §3, §4

FER = FER (Homo sapiens, UniProt P16591)
Experimental: as §1, §2, §3

ALK(R1275Q) = ALK(R1275Q) (Homo sapiens, UniProt Q9UM73, R1275Q)
Experimental: as §1, §2, §3, §4

PIM2 = PIM2 (Homo sapiens, UniProt Q9P1W9)
Experimental: as §1, §2, §3, §4

EGFR = EGFR (Homo sapiens, UniProt P00533)
Experimental: as §1, §2, §3, §4

MAP2K7_Cascade = MAP2K7_Cascade (Homo sapiens, UniProt O14733)
Experimental: as §1, §2, §3, §4

KIT(T670I) = KIT(T670I) (Homo sapiens, UniProt P10721, T670I)
Experimental: as §1, §2, §3, §4

MET(Y1235D) = MET(Y1235D) (Homo sapiens, UniProt P08581, Y1235D)
Experimental: as §1, §2, §3, §4

DLK_Cascade = DLK_Cascade (Homo sapiens, UniProt Q12852)
Experimental: as §1, §2, §3, §4

NuaK2 = NuaK2 (Homo sapiens, UniProt Q9H093)
Experimental: as §1, §2, §3, §4

RET(Y791F) = RET(Y791F) (Homo sapiens, UniProt P07949, Y791F)
Experimental: as §1, §2, §3, §4

MET = MET (Homo sapiens, UniProt P08581)
Experimental: as §2, §3, §4

PAK1 = PAK1 (Homo sapiens, UniProt Q13153)
Experimental: as §2, §3, §4

PIM1 = PIM1 (Homo sapiens, UniProt P11309)
Experimental: as §1, §2, §3

p38γ = p38γ (Homo sapiens, UniProt P53778)
Experimental: as §1, §2, §3

SPHK2 = SPHK2 (Homo sapiens, UniProt Q9NRA0)
Experimental: as §1, §2, §3, §4

PRKX = PRKX (Homo sapiens, UniProt P51817)
Experimental: as §1, §2, §3, §4

EGFR(T790M) = EGFR(T790M) (Homo sapiens, UniProt P00533, T790M)
Experimental: as §1, §2, §3, §4

MNK1 = MNK1 (Homo sapiens, UniProt Q9BUB5)
Experimental: as §1, §2, §3, §4

NEK6 = NEK6 (Homo sapiens, UniProt Q9HC98)
Experimental: as §1, §2, §3

PHKG2 = PHKG2 (Homo sapiens, UniProt P15735)
Experimental: as §1, §2, §3

CK2α1/β = CK2α1/β (Homo sapiens, UniProt P68400)
Experimental: as §1, §2, §3, §4

EEF2K = EEF2K (Homo sapiens, UniProt O00418)
Experimental: as §1, §2, §3

RSK1 = RSK1 (Homo sapiens, UniProt Q15418)
Experimental: as §1, §2, §3

MST1 = MST1 (Homo sapiens, UniProt Q13043)
Experimental: as §1, §2, §3, §4

CGK2 = CGK2 (Homo sapiens, UniProt Q13237)
Experimental: as §1, §2, §3, §4

PKACβ = PKACβ (Homo sapiens, UniProt P22694)
Experimental: as §1, §2, §3, §4

FGFR2 = FGFR2 (Homo sapiens, UniProt P21802)
Experimental: as §1, §2, §3

FGFR4 = FGFR4 (Homo sapiens, UniProt P22455)
Experimental: as §1, §2, §3

MAPKAPK2 = MAPKAPK2 (Homo sapiens, UniProt P49137)
Experimental: as §1, §2, §3, §4

Chain of EGFR (P00533 25-1210): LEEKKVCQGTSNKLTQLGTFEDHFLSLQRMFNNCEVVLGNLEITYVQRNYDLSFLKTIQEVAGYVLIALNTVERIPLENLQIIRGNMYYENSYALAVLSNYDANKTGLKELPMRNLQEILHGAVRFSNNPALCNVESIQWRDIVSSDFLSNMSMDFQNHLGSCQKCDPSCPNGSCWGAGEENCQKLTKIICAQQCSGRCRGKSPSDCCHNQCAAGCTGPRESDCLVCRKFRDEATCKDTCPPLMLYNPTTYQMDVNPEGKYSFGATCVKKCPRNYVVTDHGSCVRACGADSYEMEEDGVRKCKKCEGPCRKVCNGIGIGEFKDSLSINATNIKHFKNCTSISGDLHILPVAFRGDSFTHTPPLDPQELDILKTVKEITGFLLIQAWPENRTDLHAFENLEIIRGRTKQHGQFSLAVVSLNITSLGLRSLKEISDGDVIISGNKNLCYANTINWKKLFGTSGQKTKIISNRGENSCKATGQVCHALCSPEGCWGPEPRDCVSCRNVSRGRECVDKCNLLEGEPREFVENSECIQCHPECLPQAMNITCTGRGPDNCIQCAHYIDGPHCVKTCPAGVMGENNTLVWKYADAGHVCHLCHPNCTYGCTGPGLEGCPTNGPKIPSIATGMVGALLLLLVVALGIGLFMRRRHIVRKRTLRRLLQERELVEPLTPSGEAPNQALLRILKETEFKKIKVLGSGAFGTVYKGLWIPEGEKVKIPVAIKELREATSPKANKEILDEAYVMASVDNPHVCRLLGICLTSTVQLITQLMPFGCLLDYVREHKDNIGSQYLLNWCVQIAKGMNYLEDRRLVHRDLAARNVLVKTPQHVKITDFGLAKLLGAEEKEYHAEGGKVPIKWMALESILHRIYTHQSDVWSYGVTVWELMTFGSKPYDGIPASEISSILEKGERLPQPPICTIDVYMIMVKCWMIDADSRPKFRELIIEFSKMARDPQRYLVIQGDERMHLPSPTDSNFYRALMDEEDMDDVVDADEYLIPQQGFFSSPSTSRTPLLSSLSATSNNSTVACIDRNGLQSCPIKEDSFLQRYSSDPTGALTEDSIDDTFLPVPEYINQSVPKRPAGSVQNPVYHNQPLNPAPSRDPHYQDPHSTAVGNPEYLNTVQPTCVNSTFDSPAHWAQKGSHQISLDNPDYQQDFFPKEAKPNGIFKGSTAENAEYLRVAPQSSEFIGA
Chain of PIM1 (P11309 whole entry): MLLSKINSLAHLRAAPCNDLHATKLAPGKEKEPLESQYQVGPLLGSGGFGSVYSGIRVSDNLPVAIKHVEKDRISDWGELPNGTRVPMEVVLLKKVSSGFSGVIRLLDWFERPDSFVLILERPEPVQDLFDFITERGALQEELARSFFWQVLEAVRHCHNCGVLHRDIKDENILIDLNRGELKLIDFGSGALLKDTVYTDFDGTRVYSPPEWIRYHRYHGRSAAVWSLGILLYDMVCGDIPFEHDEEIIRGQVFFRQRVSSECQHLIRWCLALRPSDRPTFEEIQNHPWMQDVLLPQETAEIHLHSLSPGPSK
Chain of p38δ (O15264 whole entry): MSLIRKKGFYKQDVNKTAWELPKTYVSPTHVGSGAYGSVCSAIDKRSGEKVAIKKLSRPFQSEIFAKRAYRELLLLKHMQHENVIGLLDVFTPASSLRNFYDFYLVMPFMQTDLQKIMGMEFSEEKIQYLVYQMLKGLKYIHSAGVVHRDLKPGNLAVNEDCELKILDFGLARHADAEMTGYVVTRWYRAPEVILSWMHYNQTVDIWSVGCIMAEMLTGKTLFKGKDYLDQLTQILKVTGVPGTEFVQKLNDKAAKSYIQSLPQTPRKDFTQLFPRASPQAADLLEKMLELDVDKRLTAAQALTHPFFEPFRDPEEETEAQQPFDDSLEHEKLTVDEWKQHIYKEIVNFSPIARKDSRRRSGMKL
Chain of EML4-ALK (Q9UM73 with tags, fused parts or gaps): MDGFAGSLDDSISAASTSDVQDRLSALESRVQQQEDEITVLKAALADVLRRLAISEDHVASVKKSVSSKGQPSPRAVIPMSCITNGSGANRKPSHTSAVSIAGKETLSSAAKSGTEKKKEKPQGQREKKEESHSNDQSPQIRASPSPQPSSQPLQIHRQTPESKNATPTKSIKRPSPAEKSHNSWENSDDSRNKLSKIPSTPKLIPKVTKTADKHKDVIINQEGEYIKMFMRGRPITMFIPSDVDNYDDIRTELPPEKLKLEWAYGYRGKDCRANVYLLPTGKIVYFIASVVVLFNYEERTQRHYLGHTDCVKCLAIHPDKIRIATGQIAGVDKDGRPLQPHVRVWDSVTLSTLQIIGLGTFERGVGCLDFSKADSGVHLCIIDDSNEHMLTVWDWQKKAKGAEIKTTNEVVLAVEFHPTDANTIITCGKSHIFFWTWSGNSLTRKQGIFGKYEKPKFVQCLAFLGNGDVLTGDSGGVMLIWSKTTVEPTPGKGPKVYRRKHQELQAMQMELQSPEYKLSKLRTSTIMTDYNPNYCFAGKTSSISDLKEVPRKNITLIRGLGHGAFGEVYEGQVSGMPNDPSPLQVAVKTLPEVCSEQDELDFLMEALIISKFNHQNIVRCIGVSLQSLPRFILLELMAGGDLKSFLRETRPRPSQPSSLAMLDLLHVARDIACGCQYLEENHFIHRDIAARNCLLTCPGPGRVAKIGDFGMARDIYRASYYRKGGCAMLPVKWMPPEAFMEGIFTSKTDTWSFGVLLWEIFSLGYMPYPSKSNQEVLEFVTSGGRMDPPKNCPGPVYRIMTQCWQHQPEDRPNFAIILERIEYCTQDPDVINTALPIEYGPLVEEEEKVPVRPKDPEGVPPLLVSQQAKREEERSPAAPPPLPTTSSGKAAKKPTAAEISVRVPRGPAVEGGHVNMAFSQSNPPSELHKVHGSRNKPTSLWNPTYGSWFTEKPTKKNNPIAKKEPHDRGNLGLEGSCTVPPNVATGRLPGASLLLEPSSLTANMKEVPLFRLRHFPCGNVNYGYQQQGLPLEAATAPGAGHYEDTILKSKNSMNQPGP
Chain of SPHK2 (Q9NRA0 whole entry): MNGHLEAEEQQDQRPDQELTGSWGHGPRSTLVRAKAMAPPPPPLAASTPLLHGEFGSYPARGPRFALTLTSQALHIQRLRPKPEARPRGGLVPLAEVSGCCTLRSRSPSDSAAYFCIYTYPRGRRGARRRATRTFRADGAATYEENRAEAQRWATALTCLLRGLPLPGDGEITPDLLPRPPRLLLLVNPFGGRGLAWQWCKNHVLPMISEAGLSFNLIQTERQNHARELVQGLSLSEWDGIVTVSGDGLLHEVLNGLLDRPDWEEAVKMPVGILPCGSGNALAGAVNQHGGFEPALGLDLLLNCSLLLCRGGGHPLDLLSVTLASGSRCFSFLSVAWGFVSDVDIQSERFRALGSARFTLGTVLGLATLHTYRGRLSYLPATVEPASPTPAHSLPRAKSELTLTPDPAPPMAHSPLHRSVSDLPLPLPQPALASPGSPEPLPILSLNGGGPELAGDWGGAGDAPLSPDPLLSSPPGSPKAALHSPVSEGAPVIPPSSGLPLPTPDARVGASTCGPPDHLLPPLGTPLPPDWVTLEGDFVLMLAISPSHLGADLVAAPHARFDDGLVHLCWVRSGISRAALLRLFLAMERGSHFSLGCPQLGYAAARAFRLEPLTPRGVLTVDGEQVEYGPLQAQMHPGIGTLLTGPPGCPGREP
Chain of RET(Y791F) (P07949 29-1114 Y791F): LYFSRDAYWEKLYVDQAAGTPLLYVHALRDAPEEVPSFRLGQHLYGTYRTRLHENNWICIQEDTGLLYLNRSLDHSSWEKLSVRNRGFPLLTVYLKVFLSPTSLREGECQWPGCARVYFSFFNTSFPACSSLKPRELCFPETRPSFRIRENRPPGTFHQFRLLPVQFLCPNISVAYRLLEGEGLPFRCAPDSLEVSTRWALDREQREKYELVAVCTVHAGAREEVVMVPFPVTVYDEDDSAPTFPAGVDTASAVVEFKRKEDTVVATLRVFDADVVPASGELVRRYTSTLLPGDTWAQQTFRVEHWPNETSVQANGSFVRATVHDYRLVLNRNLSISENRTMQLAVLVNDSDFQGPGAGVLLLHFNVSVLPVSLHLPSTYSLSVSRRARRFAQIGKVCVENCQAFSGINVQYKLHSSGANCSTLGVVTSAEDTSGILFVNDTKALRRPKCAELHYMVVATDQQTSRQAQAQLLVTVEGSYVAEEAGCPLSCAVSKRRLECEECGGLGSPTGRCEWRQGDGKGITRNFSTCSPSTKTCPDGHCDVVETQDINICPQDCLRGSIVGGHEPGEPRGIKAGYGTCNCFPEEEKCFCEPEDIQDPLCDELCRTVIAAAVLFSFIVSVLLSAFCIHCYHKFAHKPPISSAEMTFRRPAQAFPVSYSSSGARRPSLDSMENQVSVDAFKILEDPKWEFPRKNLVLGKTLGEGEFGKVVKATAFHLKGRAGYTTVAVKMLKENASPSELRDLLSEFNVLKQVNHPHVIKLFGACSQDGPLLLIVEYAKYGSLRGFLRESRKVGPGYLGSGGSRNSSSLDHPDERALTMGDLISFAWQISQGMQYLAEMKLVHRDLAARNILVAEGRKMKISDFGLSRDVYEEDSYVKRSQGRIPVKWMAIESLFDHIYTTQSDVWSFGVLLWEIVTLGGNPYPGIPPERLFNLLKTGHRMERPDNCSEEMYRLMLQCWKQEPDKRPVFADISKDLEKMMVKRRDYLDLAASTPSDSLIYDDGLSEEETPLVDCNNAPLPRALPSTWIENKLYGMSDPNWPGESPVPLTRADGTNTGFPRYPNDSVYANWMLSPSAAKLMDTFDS
Chain of PIM2 (Q9P1W9 whole entry): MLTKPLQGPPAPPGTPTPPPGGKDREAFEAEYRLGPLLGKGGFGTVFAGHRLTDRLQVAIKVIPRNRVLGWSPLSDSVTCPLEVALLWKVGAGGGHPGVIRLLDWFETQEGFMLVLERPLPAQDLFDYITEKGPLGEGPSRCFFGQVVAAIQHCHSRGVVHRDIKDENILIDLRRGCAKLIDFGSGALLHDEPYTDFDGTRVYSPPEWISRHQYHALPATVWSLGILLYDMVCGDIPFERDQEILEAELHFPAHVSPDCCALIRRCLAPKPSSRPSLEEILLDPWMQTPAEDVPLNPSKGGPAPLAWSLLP

CC[C@@]1(c2ccccc2)C2=C(CC(C)(C)CC2=O)Nc2n[nH]cc21 [BRD0705]
% Inhibition at 10 μM (EPHA3): 25.2% | % Inhibition at 10 μM (CDK9/CycT1): 8.4% | % Inhibition at 10 μM (EPHA6): 7.4% | % Inhibition at 10 μM (PAK2): 6.4% | % Inhibition at 10 μM (MAP2K6_Cascade): 4.2% | % Inhibition at 10 μM (JAK3): 4.1% | % Inhibition at 10 μM (EML4-ALK): 3.4% | % Inhibition at 10 μM (TRKA): 2.9% | % Inhibition at 10 μM (p38δ): 2.4% | % Inhibition at 10 μM (BTK): 2.1% | % Inhibition at 10 μM (PKN1): 1.8% | % Inhibition at 10 μM (FER): 1.7% | % Inhibition at 10 μM (ALK(R1275Q)): 0.7% | % Inhibition at 10 μM (PIM2): 0.5% | % Inhibition at 10 μM (EGFR): 0.3% | % Inhibition at 10 μM (MAP2K7_Cascade): −0.6% | % Inhibition at 10 μM (KIT(T670I)): −0.8% | % Inhibition at 10 μM (MET(Y1235D)): −1.0% | % Inhibition at 10 μM (DLK_Cascade): −1.1% | % Inhibition at 10 μM (NuaK2): −1.7% | % Inhibition at 10 μM (RET(Y791F)): −2.2% | % Inhibition at 10 μM (MET): −2.4% | % Inhibition at 10 μM (PAK1): −2.9% | % Inhibition at 10 μM (PIM1): −3.4% | % Inhibition at 10 μM (p38γ): −3.4% | % Inhibition at 10 μM (SPHK2): −3.8% | % Inhibition at 10 μM (PRKX): −4.7% | % Inhibition at 10 μM (EGFR(T790M)): −4.9% | % Inhibition at 10 μM (MNK1): −5.2% | % Inhibition at 10 μM (NEK6): −5.7% | % Inhibition at 10 μM (PHKG2): −5.8% | % Inhibition at 10 μM (CK2α1/β): −6.0% | % Inhibition at 10 μM (EEF2K): −6.4% | % Inhibition at 10 μM (RSK1): −6.4% | % Inhibition at 10 μM (MST1): −7.3% | % Inhibition at 10 μM (CGK2): −7.3% | % Inhibition at 10 μM (PKACβ): −7.7% | % Inhibition at 10 μM (FGFR2): −9.2% | % Inhibition at 10 μM (FGFR4): −13.4% | % Inhibition at 10 μM (MAPKAPK2): −22.4%

CC(C)(C)Cc1[nH]nc2c1[C@](C)(c1ccccc1)C1=C(CC(C)(C)CC1=O)N2 [BRD3731]
% Inhibition 10 μM (EPHA3; 10 μM): 3.0% | % Inhibition 10 μM (CDK9/CycT1; 10 μM): 11.3% | % Inhibition 10 μM (EPHA6; 10 μM): 9.6% | % Inhibition 10 μM (PAK2; 10 μM): 0.0% | % Inhibition 10 μM (MAP2K6_Cascade; 10 μM): 3.3% | % Inhibition 10 μM (JAK3; 10 μM): 7.8% | % Inhibition 10 μM (EML4-ALK; 10 μM): −7.2% | % Inhibition 10 μM (TRKA; 10 μM): 12.0% | % Inhibition 10 μM (p38δ; 10 μM): −0.2% | % Inhibition 10 μM (BTK; 10 μM): 0.3% | % Inhibition 10 μM (PKN1; 10 μM): 16.2% | % Inhibition 10 μM (FER; 10 μM): 6.4% | % Inhibition 10 μM (ALK(R1275Q); 10 μM): 1.9% | % Inhibition 10 μM (PIM2; 10 μM): 0.8% | % Inhibition 10 μM (EGFR; 10 μM): 10.0% | % Inhibition 10 μM (MAP2K7_Cascade; 10 μM): 3.0% | % Inhibition 10 μM (KIT(T670I); 10 μM): −0.3% | % Inhibition 10 μM (MET(Y1235D); 10 μM): 1.2% | % Inhibition 10 μM (DLK_Cascade; 10 μM): 0.9% | % Inhibition 10 μM (NuaK2; 10 μM): −2.8% | % Inhibition 10 μM (RET(Y791F); 10 μM): 9.5% | % Inhibition 10 μM (MET; 10 μM): −0.8% | % Inhibition 10 μM (PAK1; 10 μM): −18.6% | % Inhibition 10 μM (PIM1; 10 μM): 11.0% | % Inhibition 10 μM (p38γ; 10 μM): −2.6% | % Inhibition 10 μM (SPHK2; 10 μM): 15.2% | % Inhibition 10 μM (PRKX; 10 μM): −0.2% | % Inhibition 10 μM (EGFR(T790M); 10 μM): −4.0% | % Inhibition 10 μM (MNK1; 10 μM): −4.1% | % Inhibition 10 μM (NEK6; 10 μM): 0.0% | % Inhibition 10 μM (PHKG2; 10 μM): 6.0% | % Inhibition 10 μM (CK2α1/β; 10 μM): −2.1% | % Inhibition 10 μM (EEF2K; 10 μM): 3.9% | % Inhibition 10 μM (RSK1; 10 μM): 23.4% | % Inhibition 10 μM (MST1; 10 μM): 3.9% | % Inhibition 10 μM (CGK2; 10 μM): 4.4% | % Inhibition 10 μM (PKACβ; 10 μM): 9.3% | % Inhibition 10 μM (FGFR2; 10 μM): 1.9% | % Inhibition 10 μM (FGFR4; 10 μM): −8.1% | % Inhibition 10 μM (MAPKAPK2; 10 μM): 22.4%
